The target of experiment [1] is T1, Hexokinase HKDC1 (Homo sapiens, UniProt Q2TB90).
T1 sequence (Q2TB90 whole entry): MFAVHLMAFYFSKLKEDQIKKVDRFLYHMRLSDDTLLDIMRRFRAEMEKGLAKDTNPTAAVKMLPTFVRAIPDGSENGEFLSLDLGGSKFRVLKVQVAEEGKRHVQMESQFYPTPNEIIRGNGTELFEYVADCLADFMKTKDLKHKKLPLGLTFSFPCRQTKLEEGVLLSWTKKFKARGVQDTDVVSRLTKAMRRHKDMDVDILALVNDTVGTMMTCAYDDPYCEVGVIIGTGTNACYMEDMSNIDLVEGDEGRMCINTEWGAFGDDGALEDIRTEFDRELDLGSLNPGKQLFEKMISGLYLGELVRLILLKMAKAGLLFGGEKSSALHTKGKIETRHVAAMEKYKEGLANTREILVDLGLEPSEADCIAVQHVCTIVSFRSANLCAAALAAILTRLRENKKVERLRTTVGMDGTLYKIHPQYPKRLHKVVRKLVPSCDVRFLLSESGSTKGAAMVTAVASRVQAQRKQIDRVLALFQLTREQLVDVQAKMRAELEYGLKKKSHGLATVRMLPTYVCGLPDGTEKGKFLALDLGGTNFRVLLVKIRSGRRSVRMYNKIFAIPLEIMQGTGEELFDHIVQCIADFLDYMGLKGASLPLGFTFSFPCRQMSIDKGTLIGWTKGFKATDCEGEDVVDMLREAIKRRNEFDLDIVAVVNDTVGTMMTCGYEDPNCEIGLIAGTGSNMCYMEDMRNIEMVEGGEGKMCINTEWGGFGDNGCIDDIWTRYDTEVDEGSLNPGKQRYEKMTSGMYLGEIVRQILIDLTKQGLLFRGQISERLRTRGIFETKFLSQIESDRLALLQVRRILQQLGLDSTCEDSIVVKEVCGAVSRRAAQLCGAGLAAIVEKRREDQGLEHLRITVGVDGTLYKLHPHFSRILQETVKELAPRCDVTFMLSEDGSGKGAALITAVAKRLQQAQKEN
In words: SAR analysis of small molecule inhibitors of hexokinase domain containing I (HKDC1). [Related pubchem assays (depositor defined):AID493160, AID493190]. It counts as functional.

Experiment [2] deals with T2, Hexokinase-1 (Homo sapiens, UniProt P19367).
T2 sequence (P19367 whole entry): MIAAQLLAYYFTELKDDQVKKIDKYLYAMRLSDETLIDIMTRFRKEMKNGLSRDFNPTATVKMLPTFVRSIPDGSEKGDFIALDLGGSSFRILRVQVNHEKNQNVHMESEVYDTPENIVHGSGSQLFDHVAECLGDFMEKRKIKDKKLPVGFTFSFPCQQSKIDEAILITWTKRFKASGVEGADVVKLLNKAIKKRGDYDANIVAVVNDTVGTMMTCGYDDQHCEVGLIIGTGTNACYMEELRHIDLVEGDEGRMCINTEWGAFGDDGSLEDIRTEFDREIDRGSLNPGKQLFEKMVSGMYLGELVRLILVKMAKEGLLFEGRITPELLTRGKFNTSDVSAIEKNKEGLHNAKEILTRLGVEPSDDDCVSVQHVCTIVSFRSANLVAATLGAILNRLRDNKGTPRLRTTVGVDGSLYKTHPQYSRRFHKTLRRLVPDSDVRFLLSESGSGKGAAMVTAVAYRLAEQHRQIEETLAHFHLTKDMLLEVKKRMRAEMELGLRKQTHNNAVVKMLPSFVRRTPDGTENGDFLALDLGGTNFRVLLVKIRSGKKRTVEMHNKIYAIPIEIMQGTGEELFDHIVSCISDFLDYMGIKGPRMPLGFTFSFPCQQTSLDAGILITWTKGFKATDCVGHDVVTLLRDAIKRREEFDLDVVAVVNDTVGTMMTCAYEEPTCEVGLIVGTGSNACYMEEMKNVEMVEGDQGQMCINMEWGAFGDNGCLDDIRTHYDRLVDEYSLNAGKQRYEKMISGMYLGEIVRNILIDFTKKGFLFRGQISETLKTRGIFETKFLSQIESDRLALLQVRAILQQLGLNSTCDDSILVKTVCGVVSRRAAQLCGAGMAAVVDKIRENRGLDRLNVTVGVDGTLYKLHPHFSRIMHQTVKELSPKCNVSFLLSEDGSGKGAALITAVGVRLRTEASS
The experiment can be described thus: SAR analysis of small molecule inhibitors of hexokinase domain containing I (HKDC1) in the hexokinase 1 selectivity assay. [Related pubchem assays (depositor defined):AID493160, AID493190]. It counts as functional.

Experiment [3] deals with Albumin (Bos taurus, UniProt P02769). The experiment can be described thus: Counterscreen for inhibitors of T-cell receptor (TCR)-CD3 interaction: Fluorescence-based biochemical high throughput dose response assay to identify inhibitors of T-cell receptor (TCR)-CD3 interaction using a TAMRA-labeled BSA probe. Format: functional.
Albumin, sequence (P02769 whole entry): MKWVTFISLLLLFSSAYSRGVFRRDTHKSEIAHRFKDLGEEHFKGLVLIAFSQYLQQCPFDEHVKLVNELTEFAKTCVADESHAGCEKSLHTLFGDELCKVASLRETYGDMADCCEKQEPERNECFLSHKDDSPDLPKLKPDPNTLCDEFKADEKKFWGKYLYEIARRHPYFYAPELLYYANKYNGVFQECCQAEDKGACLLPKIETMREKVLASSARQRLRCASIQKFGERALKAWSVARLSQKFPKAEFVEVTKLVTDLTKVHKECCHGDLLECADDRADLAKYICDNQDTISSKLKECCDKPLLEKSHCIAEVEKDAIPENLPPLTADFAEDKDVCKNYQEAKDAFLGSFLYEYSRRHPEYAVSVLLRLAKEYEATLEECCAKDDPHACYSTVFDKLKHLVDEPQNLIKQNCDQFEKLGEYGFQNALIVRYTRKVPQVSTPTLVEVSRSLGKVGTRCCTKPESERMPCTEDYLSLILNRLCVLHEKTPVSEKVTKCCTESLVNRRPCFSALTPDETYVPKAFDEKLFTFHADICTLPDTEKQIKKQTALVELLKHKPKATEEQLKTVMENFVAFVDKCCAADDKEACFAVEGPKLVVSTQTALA
Experiment [4] concerns the target T3, Histone-lysine N-methyltransferase NSD2 (Homo sapiens, UniProt O96028).
T3 sequence (O96028 whole entry): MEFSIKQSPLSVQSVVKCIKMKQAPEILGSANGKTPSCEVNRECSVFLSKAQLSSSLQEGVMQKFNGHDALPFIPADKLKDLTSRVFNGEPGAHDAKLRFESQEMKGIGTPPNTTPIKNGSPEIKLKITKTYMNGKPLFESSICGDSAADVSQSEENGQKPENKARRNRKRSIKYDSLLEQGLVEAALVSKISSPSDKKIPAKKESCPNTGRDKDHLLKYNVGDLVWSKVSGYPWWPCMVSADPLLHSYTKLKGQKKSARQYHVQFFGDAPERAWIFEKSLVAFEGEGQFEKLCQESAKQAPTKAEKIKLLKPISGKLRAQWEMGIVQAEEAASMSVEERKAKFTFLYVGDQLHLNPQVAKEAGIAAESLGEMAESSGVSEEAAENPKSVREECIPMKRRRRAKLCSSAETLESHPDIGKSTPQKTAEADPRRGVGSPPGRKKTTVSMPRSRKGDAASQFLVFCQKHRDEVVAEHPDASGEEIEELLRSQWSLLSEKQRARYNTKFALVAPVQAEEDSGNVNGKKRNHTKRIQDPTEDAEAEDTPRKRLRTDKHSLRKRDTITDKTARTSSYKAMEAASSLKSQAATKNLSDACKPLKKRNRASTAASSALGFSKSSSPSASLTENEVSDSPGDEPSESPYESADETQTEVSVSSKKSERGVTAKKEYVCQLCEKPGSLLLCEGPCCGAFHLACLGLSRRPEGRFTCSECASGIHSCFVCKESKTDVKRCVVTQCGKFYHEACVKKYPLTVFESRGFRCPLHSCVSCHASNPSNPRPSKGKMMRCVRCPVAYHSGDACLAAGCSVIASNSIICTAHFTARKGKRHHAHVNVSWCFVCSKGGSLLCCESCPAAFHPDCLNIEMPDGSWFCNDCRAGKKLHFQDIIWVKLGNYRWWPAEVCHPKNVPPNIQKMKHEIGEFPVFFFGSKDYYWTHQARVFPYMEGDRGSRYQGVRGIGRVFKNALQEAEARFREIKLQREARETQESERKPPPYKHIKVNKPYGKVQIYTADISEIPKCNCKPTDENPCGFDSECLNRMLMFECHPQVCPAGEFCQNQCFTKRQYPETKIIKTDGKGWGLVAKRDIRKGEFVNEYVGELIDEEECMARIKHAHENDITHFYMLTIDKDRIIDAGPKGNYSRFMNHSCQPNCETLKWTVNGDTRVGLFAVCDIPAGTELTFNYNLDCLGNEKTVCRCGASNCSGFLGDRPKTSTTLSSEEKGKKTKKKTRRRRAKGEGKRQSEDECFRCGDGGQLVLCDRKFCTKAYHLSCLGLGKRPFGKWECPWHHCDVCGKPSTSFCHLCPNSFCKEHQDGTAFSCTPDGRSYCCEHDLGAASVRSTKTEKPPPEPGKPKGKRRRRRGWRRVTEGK
Format: biochemical.

Experiment [5] concerns the target Keap1/Nrf2 (Homo sapiens, UniProt Q14145). The experiment can be described thus: Keap1-Nrf2 protein-protein interaction inhibitors, dose response, biochemical, fluorescence polarization, cherry-picked samples (AID 588683).
Experiment [6] addresses T4, Polyadenylate-binding protein 1 (Homo sapiens, UniProt P11940). In words: PABP1 MLLE–PAM2 interaction inhibitors, dose response, miRNA deadenylation inhibitor project, biochemical, fluorescence polarization, Cy5-PAM2 peptide, secondary (AID 602260). It counts as functional. The following applies: read-out: IC50_Mean.
A short description of experiment [7]: HeLa cell cytotoxicity, dose response, cytotoxicity control for MgcRacGAP inhibitor project (AID 624300). Format: functional.
The subject of experiment [8] is Vero. The experiment can be described thus: Vero cell cytotoxicity, cytotoxicity control for flavivirus capping enzyme inhibitors (AID 588742). It counts as functional. Conditions: Chlorocebus sabaeus.
Experiment [9] deals with T4, Polyadenylate-binding protein 1. In words: PABP1 MLLE–PAM2 binding inhibitor potency, dose response, biochemical, fluorescence polarization, FITC-PAM2 peptide (AID 602259). It counts as functional. The following applies: read-out: IC50_Mean.
Experiment [10] concerns the target Genome polyprotein (dengue virus type 2, UniProt P29990). The experiment can be described thus: Dengue-2 NS5 methyltransferase inhibitors, primary screen, biochemical, confirmation dose response (AID 588689). Format: functional.
A short description of experiment [11]: HEK293T cell cytotoxicity, dose response, cytotoxicity control for HIV Vif inhibitor project, cherry-picks (AID 652208). It counts as functional, cell-based.
Experiment [12] is described as follows: A Cell Based Secondary Assay To Explore Cytotoxicity of Compounds that Sensitize Mycobacterium Tuberculosis to Beta-Lactam Antibiotics. Format: functional.
Experiment [13] in a line: cytotoxicity in HEK-293T NF-kB-Luc cells, dose response, cytotoxicity control for B/T-cell NF-kB inhibitor project, cell-based, uHTS hits (AID 489019).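 Also: IC50 reflects cytotoxicity as loss of cell viability.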 It counts as functional.
The nature of experiment [14]: inhibitors of SNCA 5'UTR-driven reporter translation, confirmation, H4 neuroglioma cells, luminescence (AID 1988). It counts as functional, cell-based.
Experiment [15] deals with HEK293. In words: inhibitors of LMP1-driven NF-kB reporter, dose response, cell-based, HEK293, luciferase, cherry-pick (AID 588343). It counts as functional. Conditions: Homo sapiens.
Experiment [16] can be described thus: Luminescence Cell-Based Dose Response HTS to Identify Inhibitors of 5'UTR Stem-Loop Driven Prion Protein mRNA Translation in H4 Neuroglioblastoma Cells. [Related pubchem assays: 1827 (Project Summary), 1813 (Primary HTS)]. Format: functional.
Experiment [17] has as its system Jurkat. In words: antigen receptor-induced NF-kB inhibitors, dose response, Jurkat, luciferase reporter, luminescence, B- and T-cell (AID 489004).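 Also: NF-kB luciferase reporter Jurkat cells stimulated with PMA plus ionomycin.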 It counts as functional, cell-based. Conditions: Homo sapiens.
Experiment [18] can be described thus: inhibitors of firefly luciferase expression or activity, dose response, H4 neuroglioma cells, luminescence (AID 1990). Format: functional, cell-based.
Experiment [19] has as its target T5, High affinity choline transporter 1 (Homo sapiens, UniProt Q9GZV3).
T5 sequence (Q9GZV3 whole entry): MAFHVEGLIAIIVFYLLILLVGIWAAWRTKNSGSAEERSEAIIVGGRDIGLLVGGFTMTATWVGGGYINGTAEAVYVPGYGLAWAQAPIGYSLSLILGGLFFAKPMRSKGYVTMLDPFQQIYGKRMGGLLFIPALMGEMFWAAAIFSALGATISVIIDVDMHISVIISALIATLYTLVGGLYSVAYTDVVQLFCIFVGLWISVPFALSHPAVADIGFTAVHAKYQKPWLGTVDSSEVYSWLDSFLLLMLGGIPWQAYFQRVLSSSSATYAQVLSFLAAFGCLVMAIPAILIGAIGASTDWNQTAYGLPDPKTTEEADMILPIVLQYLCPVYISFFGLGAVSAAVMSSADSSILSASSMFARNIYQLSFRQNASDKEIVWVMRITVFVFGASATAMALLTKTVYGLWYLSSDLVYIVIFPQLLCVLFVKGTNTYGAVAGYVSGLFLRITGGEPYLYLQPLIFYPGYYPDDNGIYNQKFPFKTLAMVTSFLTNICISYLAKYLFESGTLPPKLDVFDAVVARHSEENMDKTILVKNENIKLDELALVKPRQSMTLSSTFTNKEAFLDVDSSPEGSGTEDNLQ
In words: CHT inhibitors, dose response, cell-based, 5-point CRC, membrane potential dye (AID 504840). It counts as functional.

For experiment [20], the target named is T5, High affinity choline transporter 1. The experiment can be described thus: CHT inhibitors, dose response, cell-based, 10-point CRC, membrane potential dye (AID 588401).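 Also: membrane potential dye fluorescence of choline-evoked depolarization via CHT.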 It counts as functional.

Activity calls are given as the source filed them. Where only a bound is given, the exact number is not on record here.

T4 sequence (P11940 whole entry): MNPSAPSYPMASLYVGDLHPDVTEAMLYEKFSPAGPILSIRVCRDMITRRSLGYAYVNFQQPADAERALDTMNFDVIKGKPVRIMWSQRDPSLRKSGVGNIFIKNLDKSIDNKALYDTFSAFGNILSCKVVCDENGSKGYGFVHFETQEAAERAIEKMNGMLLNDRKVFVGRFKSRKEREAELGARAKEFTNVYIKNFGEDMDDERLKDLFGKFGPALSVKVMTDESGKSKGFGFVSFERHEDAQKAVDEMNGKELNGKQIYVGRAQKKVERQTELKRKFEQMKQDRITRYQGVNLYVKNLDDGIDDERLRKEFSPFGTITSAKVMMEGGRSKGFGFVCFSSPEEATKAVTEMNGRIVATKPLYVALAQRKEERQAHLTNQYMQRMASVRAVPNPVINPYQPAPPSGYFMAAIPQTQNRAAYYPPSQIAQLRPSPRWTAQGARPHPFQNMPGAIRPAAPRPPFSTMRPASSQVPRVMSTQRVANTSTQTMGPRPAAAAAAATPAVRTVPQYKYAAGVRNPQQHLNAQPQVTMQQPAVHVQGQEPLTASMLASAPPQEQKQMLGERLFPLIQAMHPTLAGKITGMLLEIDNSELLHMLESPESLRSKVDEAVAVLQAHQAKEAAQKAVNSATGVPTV
Genome polyprotein, sequence (P29990 2492-3391 limits assumed): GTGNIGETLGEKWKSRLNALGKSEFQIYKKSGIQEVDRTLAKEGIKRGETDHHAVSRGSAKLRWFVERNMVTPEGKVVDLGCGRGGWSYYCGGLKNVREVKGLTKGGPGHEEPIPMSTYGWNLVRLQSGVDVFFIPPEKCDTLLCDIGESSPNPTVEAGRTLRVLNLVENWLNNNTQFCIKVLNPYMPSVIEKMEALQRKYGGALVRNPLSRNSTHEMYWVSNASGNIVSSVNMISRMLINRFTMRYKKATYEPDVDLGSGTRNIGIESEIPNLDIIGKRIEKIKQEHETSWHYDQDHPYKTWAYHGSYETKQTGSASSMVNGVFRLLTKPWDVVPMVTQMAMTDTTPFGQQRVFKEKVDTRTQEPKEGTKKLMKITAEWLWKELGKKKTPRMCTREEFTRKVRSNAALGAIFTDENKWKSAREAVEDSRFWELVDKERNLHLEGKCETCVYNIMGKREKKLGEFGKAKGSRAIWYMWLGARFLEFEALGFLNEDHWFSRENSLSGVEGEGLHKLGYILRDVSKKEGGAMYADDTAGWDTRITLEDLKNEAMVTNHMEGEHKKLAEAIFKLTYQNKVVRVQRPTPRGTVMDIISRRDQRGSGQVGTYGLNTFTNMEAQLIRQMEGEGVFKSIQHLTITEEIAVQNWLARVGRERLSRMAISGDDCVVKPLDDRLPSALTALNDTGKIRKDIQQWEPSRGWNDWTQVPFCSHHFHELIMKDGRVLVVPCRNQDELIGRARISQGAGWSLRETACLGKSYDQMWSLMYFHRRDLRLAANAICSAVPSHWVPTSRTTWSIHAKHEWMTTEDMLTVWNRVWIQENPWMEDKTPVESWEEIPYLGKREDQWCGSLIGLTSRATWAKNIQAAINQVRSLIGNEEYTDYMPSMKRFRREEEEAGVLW
Keap1/Nrf2, sequence (Q16236 whole entry): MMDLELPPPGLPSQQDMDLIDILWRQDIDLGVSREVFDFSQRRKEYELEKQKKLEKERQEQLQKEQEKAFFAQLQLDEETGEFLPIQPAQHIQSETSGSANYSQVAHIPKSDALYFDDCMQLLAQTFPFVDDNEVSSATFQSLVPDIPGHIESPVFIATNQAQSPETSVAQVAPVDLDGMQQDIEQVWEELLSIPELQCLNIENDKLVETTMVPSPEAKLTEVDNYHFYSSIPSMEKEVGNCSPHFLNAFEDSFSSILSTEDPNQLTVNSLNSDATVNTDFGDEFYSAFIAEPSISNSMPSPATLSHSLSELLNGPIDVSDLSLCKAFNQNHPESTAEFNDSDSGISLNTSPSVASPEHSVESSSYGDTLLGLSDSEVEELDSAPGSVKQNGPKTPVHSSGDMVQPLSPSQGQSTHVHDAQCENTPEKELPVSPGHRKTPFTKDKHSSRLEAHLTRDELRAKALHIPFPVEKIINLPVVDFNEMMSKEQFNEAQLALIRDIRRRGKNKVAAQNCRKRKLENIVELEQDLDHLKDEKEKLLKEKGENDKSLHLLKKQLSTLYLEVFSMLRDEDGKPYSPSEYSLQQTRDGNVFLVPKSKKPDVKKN
Keap1/Nrf2, sequence (Q14145 whole entry): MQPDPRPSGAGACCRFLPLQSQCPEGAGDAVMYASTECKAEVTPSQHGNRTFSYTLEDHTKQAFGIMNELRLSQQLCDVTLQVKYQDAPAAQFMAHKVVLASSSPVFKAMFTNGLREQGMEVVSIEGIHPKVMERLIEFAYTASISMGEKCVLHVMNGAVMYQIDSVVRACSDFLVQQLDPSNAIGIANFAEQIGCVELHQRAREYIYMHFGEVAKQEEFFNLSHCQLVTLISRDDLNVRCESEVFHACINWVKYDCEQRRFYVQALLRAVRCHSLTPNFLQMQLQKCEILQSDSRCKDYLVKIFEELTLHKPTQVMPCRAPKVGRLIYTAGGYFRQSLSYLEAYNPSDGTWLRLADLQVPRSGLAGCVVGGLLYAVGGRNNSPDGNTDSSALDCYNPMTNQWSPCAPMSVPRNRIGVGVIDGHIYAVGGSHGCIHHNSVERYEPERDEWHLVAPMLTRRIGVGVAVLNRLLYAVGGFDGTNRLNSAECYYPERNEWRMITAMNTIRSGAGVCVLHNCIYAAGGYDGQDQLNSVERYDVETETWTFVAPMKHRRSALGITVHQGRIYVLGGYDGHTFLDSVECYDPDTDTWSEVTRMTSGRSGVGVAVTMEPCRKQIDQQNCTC

As to `O=c1c2ccccc2nc(/C=C/c2ccc(F)cc2)n1Cc1ccccc1`, the IC50 in experiment [1] and in experiment [2] was > 80 µM (inactive) throughout.

For the molecule `O=C1C(Cl)=C(N2CCN(CCO)CC2)C(=O)c2c(O)ccc(O)c21`, the IC50 in experiment [3] was 29.1 µM (inactive); in experiment [6] it was > 66 µM (inactive); in experiment [9], 60.6 µM (inactive); in experiment [10] it was 4.58 µM (active). The concentration at half-maximal activity (AC50) in experiment [4] was 4.44 µM (active); in experiment [5], > 52 µM (inactive). Also, the CC50 is 12.9 µM (active) in experiment [7] and 2.85 µM (active) in experiment [8].

For `CCc1cc2c(Sc3nc4ccccc4s3)ncnc2s1`, the AC50 in experiment [11] is > 52 µM (inactive); in experiment [15], 4.9 µM (active). Further, the CC50 in [12] was 30.2 µM (active). In addition, the values for the IC50 in experiment [13] and in experiment [17] were > 80 µM (inactive) and < 0.16 µM (active), respectively. Further, the EC50 in [14] is 3.87 µM (active); in experiment [16], 16.3 µM (active); in experiment [18], > 120 µM (not active).

As for `O=C(Nc1cccc(C(F)(F)F)c1)c1cccc(NC(=O)c2ccccn2)c1`, the IC50 in experiment [1] and in [2] was > 80 µM (inactive) throughout.

For `CC1=NOC(=O)/C1=C/c1ccc(O)c(Cl)c1`, the IC50 was 6.99 µM (active) in experiment [19] and 3.57 µM (active) in [20].

`COc1ccc(Cn2c(/C=C/c3cccnc3)nc3ccccc3c2=O)cc1`: the IC50 in experiment [1] and in experiment [2] was > 80 µM (inactive) throughout.

For the origin of these results see ChEMBL document CHEMBL1201862, “PubChem BioAssay data set” (2004).
